From paper PMC9806890, “Purification and biochemical characterization of two laccase isoenzymes isolated from Trichoderma harzianum S7113 and its application for bisphenol A degradation” (Microbial Cell Factories, 2023)

Experiments:
Lac A (LacA) = tested on: T1, Lac A (LacA); test: absorbance at […] nm, Lineweaver-Burk; format: biochemical, Trichoderma harzianum; conditions: 0.1 M sodium citrate, pH 4.5; ABTS 0.025-0.4 mM; O2 co-substrate
T1 construct: 63 kDa by SDS-PAGE

Lac B (LacB) = tested on: T2, Lac B (LacB); test: absorbance at […] nm, Lineweaver-Burk; format: biochemical, Trichoderma harzianum; conditions: 0.1 M sodium citrate, pH 4.5; ABTS 0.025-0.4 mM; O2 co-substrate
T2 construct: 48 kDa by SDS-PAGE

CCn1c(=NN=c2sc3cc(S(=O)(=O)O)ccc3n2CC)sc2cc(S(=O)(=O)O)ccc21 [ABTS, 2,2ʹ-Azinobis-(3-ethylbenzothiazoline-6-sulfonic acid)]
Km (Lac A (LacA)): 100 µM | Km (Lac B (LacB)): 64 µM
